{"source": "patent US20090068290A1", "about": "“BIFEPRUNOX DOSES FOR TREATING SCHIZOPHRENIA” (priority 2006, published 2009)", "type_in_all_cases": "in vivo, human", "key": {"[1]": {"test_system": "adult subjects with schizophrenia", "assay": "BPRS psychosis cluster score, Clinical Study Two", "conditions": "for Change from Baseline in BPRS Psychosis Cluster Score, Mean (SD) / Change from Baseline in BPRS Psychosis Cluster Score, Median / Change from Baseline in BPRS Psychosis Cluster Score, Trt Effect (bifeprunox—placebo) / mean change (SD) from Baseline to Endpoint in BPRS psychosis cluster score: LOCF; for Change from Baseline in BPRS Psychosis Cluster Score, Mean (SD) / Change from Baseline in BPRS Psychosis Cluster Score, Median / Change from Baseline in BPRS Psychosis Cluster Score, Trt Effect (bifeprunox—placebo): ITT population; for BPRS psychosis cluster score, treatment effect (bifeprunox—placebo): Endpoint LOCF; for mean change (SD) from Baseline to Endpoint in BPRS psychosis cluster score: ITT", "description": "Rating scale assessments were performed weekly, except for week 5, to measure the change from baseline to endpoint of the PANSS total score. Other assessments included: PANSS positive symptom subscale score, PANSS negative symptom subscale score, PANSS general pschopathology subscale score, BPRS total score, BPRS psychosis score, the CGI-S score, the CGI-I score, responder rates based on the PANSS total score, and the Calgary Depression Scale for Schizophrenia (CDSS). […]\nSubjects who completed this study had the option to continue in the long-term. […] Risperidone-treated subjects were titrated from 2 mg to 6 mg daily over a three-day period and were subsequently maintained at 6 mg/day for the remainder of the treatment period. […] Blood samples were also obtained at Screening/Baseline, Week 3, and Week 6 for clinical laboratory assessments."}, "[2]": {"test_system": "adult subjects with schizophrenia", "assay": "PANSS general psychopathology subscale score, Clinical Study Three", "conditions": "for Change from Baseline in PASS General Psychopathology Subscale Score, Mean (SD) / Change from Baseline in PASS General Psychopathology Subscale Score, Median / Trt Effect (bifeprunox - placebo), PASS General Psychopathology Subscale Score / mean change (SD) from Baseline to Endpoint in PANSS general psychopathology subscale score: LOCF; for Change from Baseline in PASS General Psychopathology Subscale Score, Mean (SD) / Change from Baseline in PASS General Psychopathology Subscale Score, Median / Trt Effect (bifeprunox - placebo), PASS General Psychopathology Subscale Score: ITT population; for Trt Effect (bifeprunox - placebo), PASS General Psychopathology Subscale Score: ANCOVA; for PANSS general psychopathology subscale score, treatment effect (bifeprunox—placebo): Endpoint LOCF; for mean change (SD) from Baseline to Endpoint in PANSS general psychopathology subscale score: ITT", "from_the_text": "SECONDARY OBJECTIVES To assess the efficacy of bifeprunox in treating schizophrenia using the Positive Symptom sub-scale score of the PANSS, the Negative Symptom sub-scale score of the PANSS, the General Psychopathology sub-scale of the PANSS, Brief Psychiatric Rating Scale (BPRS) total score derived from the PANSS, BPRS psychosis score derived from the PANSS, the Clinical Global Impression Severity of Illness score (CGI-S), the Clinical Global Impression Improvement score (CGI-I), CGI-I responder rate, PANSS responder rate based on the PANSS total score, Calgary Depression Scale for Schizophrenia (CDSS), and Subject Satisfaction rating.\nThere were four treatment arms in this study, approximately 144 subjects per arm. […] After completing the Single-Blind Placebo Lead-in Period of at least three days, bifeprunox-treated subjects were titrated from 0.25 mg up to 20 mg/day or 30 mg/day according to a standardized titration scheme over a seven- or eight-day period, respectively. When the assigned dose was reached, subjects were maintained at that dose for the remainder of the six week treatment period. […] Subjects were hospitalized (if not already inpatients) after eligibility for study entry was verified, starting from the Screening Visit until at least 10 days after Baseline. Subjects could be hospitalized longer than 10 days if considered medically necessary by the Investigator. Rating scale assessments for efficacy and abnormal movement disorders were done weekly except for Week 5. […] Subject satisfaction with study medication was assessed at Week 6."}, "[3]": {"assay": "Body weight, Clinical Study One", "description": "Statistical testing of the change from Baseline in weight was performed using similar methodology to that used for the secondary efficacy parameters (an ANCOVA model with factors for treatment and weight at Baseline). Pairwise comparisons of the bifeprunox treatment groups versus placebo were all statistically significant (bifeprunox 5 mg [p=0.025], bifeprunox 10 mg [p=0.009] and bifeprunox 20 mg [p=0.031] for the difference between bifeprunox and placebo mean change from Baseline in weight at Endpoint."}, "[4]": {"conditions": "Bifeprunox 30 mg, Week 6/Endpoint"}, "[5]": {"conditions": "Bifeprunox 40 mg, Week 6/Endpoint"}, "[6]": {"conditions": "Bifeprunox 20 mg, Week 6/Endpoint"}}}
{"smiles": "O=c1[nH]c2cccc(N3CCN(Cc4cccc(-c5ccccc5)c4)CC3)c2o1", "note": "[Bifeprunox, 7-[4-([1,1′-biphenyl]-3-ylmethyl)-1-piperazinyl]-2(3H)-benzoxazolone]", "values": [{"measurement": "Change from Baseline in BPRS Psychosis Cluster Score, Mean (SD)", "setting": "[1]; Bifeprunox 30 mg, Week 1", "value": "−1.7 (2.3)"}, {"measurement": "Change from Baseline in BPRS Psychosis Cluster Score, Median", "setting": "[1]; Bifeprunox 30 mg, Week 1", "value": "−1"}, {"measurement": "Change from Baseline in BPRS Psychosis Cluster Score, Median", "setting": "[1]; Bifeprunox 30 mg, Week 2", "value": "−2"}, {"measurement": "Change from Baseline in BPRS Psychosis Cluster Score, Mean (SD)", "setting": "[1]; Bifeprunox 30 mg, Week 3", "value": "−3.1 (3.8)"}, {"measurement": "Change from Baseline in BPRS Psychosis Cluster Score, Median", "setting": "[1]; Bifeprunox 30 mg, Week 3", "value": "−2"}, {"measurement": "Change from Baseline in BPRS Psychosis Cluster Score, Mean (SD)", "setting": "[1]; Bifeprunox 30 mg, Week 4", "value": "−3.1 (3.8)"}, {"measurement": "Change from Baseline in BPRS Psychosis Cluster Score, Median", "setting": "[1]; Bifeprunox 30 mg, Week 4", "value": "−3"}, {"measurement": "Change from Baseline in BPRS Psychosis Cluster Score, Mean (SD)", "setting": "[1]; [4]", "value": "−3.2 (4.2)"}, {"measurement": "Change from Baseline in BPRS Psychosis Cluster Score, Median", "setting": "[1]; [4]", "value": "−3"}, {"measurement": "Change from Baseline in BPRS Psychosis Cluster Score, Trt Effect (bifeprunox—placebo)", "setting": "[1]; [4]", "value": "−1.4"}, {"measurement": "Change from Baseline in BPRS Psychosis Cluster Score, Mean (SD)", "setting": "[1]; Bifeprunox 40 mg, Week 1", "value": "−1.7 (2.6)"}, {"measurement": "Change from Baseline in BPRS Psychosis Cluster Score, Median", "setting": "[1]; Bifeprunox 40 mg, Week 1", "value": "−1"}, {"measurement": "Change from Baseline in BPRS Psychosis Cluster Score, Mean (SD)", "setting": "[1]; Bifeprunox 40 mg, Week 2", "value": "−2.2 (3.5)"}, {"measurement": "Change from Baseline in BPRS Psychosis Cluster Score, Median", "setting": "[1]; Bifeprunox 40 mg, Week 2", "value": "−2"}, {"measurement": "Change from Baseline in BPRS Psychosis Cluster Score, Mean (SD)", "setting": "[1]; Bifeprunox 40 mg, Week 3", "value": "−2.5 (4.0)"}, {"measurement": "Change from Baseline in BPRS Psychosis Cluster Score, Median", "setting": "[1]; Bifeprunox 40 mg, Week 3", "value": "−2"}, {"measurement": "Change from Baseline in BPRS Psychosis Cluster Score, Mean (SD)", "setting": "[1]; Bifeprunox 40 mg, Week 4", "value": "−2.5 (4.2)"}, {"measurement": "Change from Baseline in BPRS Psychosis Cluster Score, Median", "setting": "[1]; Bifeprunox 40 mg, Week 4", "value": "−1"}, {"measurement": "Change from Baseline in BPRS Psychosis Cluster Score, Mean (SD)", "setting": "[1]; [5]", "value": "−2.6 (4.4)"}, {"measurement": "Change from Baseline in BPRS Psychosis Cluster Score, Median", "setting": "[1]; [5]", "value": "−2"}, {"measurement": "Change from Baseline in BPRS Psychosis Cluster Score, Trt Effect (bifeprunox—placebo)", "setting": "[1]; [5]", "value": "−1.0"}, {"measurement": "BPRS psychosis cluster score, treatment effect (bifeprunox—placebo)", "setting": "[1]; bifeprunox 30 mg", "value": "−1.4"}, {"measurement": "mean change (SD) from Baseline to Endpoint in BPRS psychosis cluster score", "setting": "[1]; bifeprunox 30 mg", "value": "−3.2 (4.2)"}, {"measurement": "BPRS psychosis cluster score, treatment effect (bifeprunox—placebo)", "setting": "[1]; bifeprunox 40 mg", "value": "−1.0"}, {"measurement": "mean change (SD) from Baseline to Endpoint in BPRS psychosis cluster score", "setting": "[1]; bifeprunox 40 mg", "value": "−2.6 (4.4)"}, {"measurement": "Change from Baseline in PASS General Psychopathology Subscale Score, Mean (SD)", "setting": "[2]; Bifeprunox 20 mg, Week 1", "value": "−2.4 (6.7)"}, {"measurement": "Change from Baseline in PASS General Psychopathology Subscale Score, Median", "setting": "[2]; Bifeprunox 20 mg, Week 1", "value": "−2"}, {"measurement": "Change from Baseline in PASS General Psychopathology Subscale Score, Mean (SD)", "setting": "[2]; Bifeprunox 20 mg, Week 2", "value": "−4.6 (8.4)"}, {"measurement": "Change from Baseline in PASS General Psychopathology Subscale Score, Median", "setting": "[2]; Bifeprunox 20 mg, Week 2", "value": "−5"}, {"measurement": "Change from Baseline in PASS General Psychopathology Subscale Score, Mean (SD)", "setting": "[2]; Bifeprunox 20 mg, Week 3", "value": "−5.6 (9.3)"}, {"measurement": "Change from Baseline in PASS General Psychopathology Subscale Score, Median", "setting": "[2]; Bifeprunox 20 mg, Week 3", "value": "−6"}, {"measurement": "Change from Baseline in PASS General Psychopathology Subscale Score, Mean (SD)", "setting": "[2]; Bifeprunox 20 mg, Week 4", "value": "−5.8 (10.1)"}, {"measurement": "Change from Baseline in PASS General Psychopathology Subscale Score, Median", "setting": "[2]; Bifeprunox 20 mg, Week 4", "value": "−7"}, {"measurement": "Change from Baseline in PASS General Psychopathology Subscale Score, Mean (SD)", "setting": "[2]; [6]", "value": "−6.1 (10.7)"}, {"measurement": "Change from Baseline in PASS General Psychopathology Subscale Score, Median", "setting": "[2]; [6]", "value": "−7"}, {"measurement": "Trt Effect (bifeprunox - placebo), PASS General Psychopathology Subscale Score", "setting": "[2]; [6]", "value": "−1.5"}, {"measurement": "Change from Baseline in PASS General Psychopathology Subscale Score, Mean (SD)", "setting": "[2]; Bifeprunox 30 mg, Week 1", "value": "−2.8 (6.3)"}, {"measurement": "Change from Baseline in PASS General Psychopathology Subscale Score, Median", "setting": "[2]; Bifeprunox 30 mg, Week 1", "value": "−3"}, {"measurement": "Change from Baseline in PASS General Psychopathology Subscale Score, Mean (SD)", "setting": "[2]; Bifeprunox 30 mg, Week 2", "value": "−3.8 (8.2)"}, {"measurement": "Change from Baseline in PASS General Psychopathology Subscale Score, Median", "setting": "[2]; Bifeprunox 30 mg, Week 2", "value": "−4"}, {"measurement": "Change from Baseline in PASS General Psychopathology Subscale Score, Mean (SD)", "setting": "[2]; Bifeprunox 30 mg, Week 3", "value": "−5.0 (9.3)"}, {"measurement": "Change from Baseline in PASS General Psychopathology Subscale Score, Median", "setting": "[2]; Bifeprunox 30 mg, Week 3", "value": "−4"}, {"measurement": "Change from Baseline in PASS General Psychopathology Subscale Score, Median", "setting": "[2]; Bifeprunox 30 mg, Week 4", "value": "−5"}, {"measurement": "Change from Baseline in PASS General Psychopathology Subscale Score, Mean (SD)", "setting": "[2]; [4]", "value": "−5.8 (10.3)"}, {"measurement": "Change from Baseline in PASS General Psychopathology Subscale Score, Median", "setting": "[2]; [4]", "value": "−6"}, {"measurement": "Trt Effect (bifeprunox - placebo), PASS General Psychopathology Subscale Score", "setting": "[2]; [4]", "value": "−0.9"}, {"measurement": "PANSS general psychopathology subscale score, treatment effect (bifeprunox—placebo)", "setting": "[2]; bifeprunox 20 mg", "value": "−1.5"}, {"measurement": "mean change (SD) from Baseline to Endpoint in PANSS general psychopathology subscale score", "setting": "[2]; bifeprunox 20 mg", "value": "−6.1 (10.7)"}, {"measurement": "PANSS general psychopathology subscale score, treatment effect (bifeprunox—placebo)", "setting": "[2]; bifeprunox 30 mg", "value": "−0.9"}, {"measurement": "mean change (SD) from Baseline to Endpoint in PANSS general psychopathology subscale score", "setting": "[2]; bifeprunox 30 mg", "value": "−5.8 (10.3)"}, {"measurement": "mean weight change at Endpoint", "setting": "[3]; bifeprunox 5 mg", "value": "−1.0", "unit": "lb"}, {"measurement": "subjects whose weight decreased by more than 7%", "setting": "[3]; bifeprunox 5 mg", "value": 6, "unit": "%"}, {"measurement": "mean weight change at Endpoint", "setting": "[3]; bifeprunox 10 mg", "value": "−1.3", "unit": "lb"}, {"measurement": "subjects whose weight decreased by more than 7%", "setting": "[3]; bifeprunox 10 mg", "value": 7, "unit": "%"}, {"measurement": "mean weight change at Endpoint", "setting": "[3]; bifeprunox 20 mg", "value": "−0.6", "unit": "lbs"}, {"measurement": "subjects whose weight decreased by more than 7%", "setting": "[3]; bifeprunox 20 mg", "value": 8, "unit": "%"}, {"measurement": "body weight (in words)", "setting": "[3]; bifeprunox groups, 6 weeks", "value": "Mild weight loss"}, {"measurement": "weight compared to placebo", "setting": "[3]; bifeprunox, 6 weeks (Example 4)", "value": "statistically significant (P<0.05) weight decrease"}]}
